The record followed here is patent US20260008815A1, “CYCLIC PEPTIDE OR SALT THEREOF, AND USES THEREOF” (FUJIFILM Corporation, priority 2023, published 2026).

Data set [1] relates to BaF3 cells stably expressing FGFR (avian). Description: BaF3 cell proliferation-promoting effect. The settings on record: number of viable cells at the addition concentration (0.001 to 10 nmol/L) giving the largest number; 2 nights; negative control about 100 cells/well. The data set is classed as cell-based. The procedure: (§1) The FGFR phosphorylation ability of the cyclic peptide complex was evaluated using the BaF3 cell proliferation-promoting effect in which FGFR was stably expressed.
(§2) BaF3 cells stably expressing FGFR were established by introducing a vector (human: Sino Biologicals, HG10824-UT, bovine: sequence of Accession No. F1MNW2 was introduced into pCDNA3.1/Hygro(+) Mammalian Expression Vector (Thermo, V87020), porcine: sequence of Accession No. A0A4X1SNN3 was introduced into pCDNA3.1/Hygro(+) Mammalian Expression Vector (Thermo, V87020), and avian: sequence of Accession No. A0A8V0XB17 was introduced into pCDNA3.1/Hygro(+) Mammalian Expression Vector (Thermo, V87020)) into which FGFR gene had been incorporated, into BaF3 cells using NucleoFector (Lonza) and performing drug selection of cells into which the FGFR gene had been introduced using hygromycin.
(§3) The evaluation of the proliferation-promoting effect of BaF3 cells in which FGFR is stably expressed was performed by the following method. First, RPMI-1640 with L-Glutamine and Phenol Red (FUJIFILM Wako Pure Chemical Corporation, 189-02025) and Fetal Bovine Serum (Thermo, 10270-106) were mixed at a volume ratio of 9:1, and then heparin (STEM CELL, 07980) was added thereto such that the final concentration thereof was 8 μg/mL, thereby preparing a culture medium for evaluation (hereinafter, described as RPMI (10% FBS) medium). Next, the BaF3 cells in which FGFR had been stably expressed were washed twice with RPMI (10% FBS) culture medium, suspended in RPMI (10% FBS) culture medium in which the cyclic peptide complex had been dissolved to a final concentration of 0.001 to 10 nmol/L, and seeded in a 384-well plate. In this case, a condition in which the cyclic peptide complex was not added as a negative control was prepared. After culturing at 37° C. (5% CO2) for 2 nights, Hoechst 33342, Trihydrochloride, Trihydrate-10 mg/mL Solution in Water (Thermo, H3570), -Cellstain (registered trademark)-Calcein-AM solution (1 mg/mL DMSO solution) (DOJINDO, C396), and -Cellstain (registered trademark)-PI solution (DOJINDO, P378) were each added to RPMI (10% FBS) culture medium in a volume amount of 1/1,000 at the final concentration, and live/dead staining of the cells were performed by allowing to stand at room temperature for 1 hour, and imaging was performed using a confocal microscope (Yokogawa Electric Corporation, CQ1). The number of viable cells was calculated from the imaging data, and the cell proliferation-promoting effect was evaluated according to the following evaluation criteria. The number of viable cells in the negative control was about 100 cells/well. The evaluation result preferably satisfies the evaluation criteria A, B, or C.
(§4) At an addition concentration of the cyclic peptide complex having the largest number of viable cells, evaluation criteria is as follows.

Data set [2] deals with BaF3 cells stably expressing FGFR (bovine). The experiment in a line: BaF3 cell proliferation-promoting effect. Format: cell-based. Particulars: number of viable cells at the addition concentration (0.001 to 10 nmol/L) giving the largest number; 2 nights; negative control about 100 cells/well. The procedure:
as §1, §2, §3, §4

Data set [3] concerns BaF3 cells stably expressing FGFR (human). Description: BaF3 cell proliferation-promoting effect. The data set is classed as cell-based. The settings on record: number of viable cells at the addition concentration (0.001 to 10 nmol/L) giving the largest number; 2 nights; negative control about 100 cells/well. The procedure: as §1, §2, §3, §4
Data set [4] has as its system BaF3 cells stably expressing FGFR (porcine). The experiment in a line: BaF3 cell proliferation-promoting effect. The data set is classed as cell-based. Particulars: number of viable cells at the addition concentration (0.001 to 10 nmol/L) giving the largest number; 2 nights; negative control about 100 cells/well. The method, then: as §1, §2, §3, §4
A short description of data set [5]: Molecular stability after alkali treatment, LC. Format: physicochemical. The settings on record: 0.5 mol/L sodium hydroxide aqueous solution added, room temperature, 3 hours. The procedure:
In addition, the stability of the cyclic peptide (SEQ ID NO: 450) containing a cysteine residue in the cyclized portion and the cyclic peptide (SEQ ID NO: 442) containing a homocysteine residue in the cyclized portion was compared under the following alkali treatment, which is a more severe condition.
The alkali treatment was performed by the following method. 25 μL of a 0.2 mg/ml cyclic peptide aqueous solution was prepared, 58.8 μL of a 0.5 mol/L sodium hydroxide aqueous solution was added to the aqueous solution, and the mixture was incubated at room temperature for 3 hours to obtain an aqueous solution of the cyclic peptide alkali-treated. The total area of all the peaks in LC/MS of the cyclic peptide before the alkali treatment was set to 100%, and the proportion of the total area of all the peaks in LC/MS of the aqueous solution of the cyclic peptide alkali-treated was determined to calculate the residual rate of the cyclic peptide.
The LC conditions used for the evaluation of molecular stability are the same as those in the measurement of the above-described cyclic peptide treated with a reducing agent.

Bridge positions count the residues as written; N and C are the ends. Ends that are not written are not given here. COCH2 = acetyl group that carries the bridge

With “455 (KCPQNFINPVQWRYFQHYKNGSGSGSSGSSSGSSKCPQNFINPVQWRYFQHYKN; also: cyclic peptide) [compound 455]”, the “Evaluation result of cell proliferative properties Avian” value in data set [1] was “C (The number of viable cells is 200 cells/well or more and less than 400 cells/well.)”. For the same substance, the “Evaluation result of cell proliferative properties Bovine” value in data set [2] was “B (The number of viable cells is 400 cells/well or more and less than 1,000 cells/well.)”. The “Evaluation result of cell proliferative properties Human” value in data set [3] is “A (The number of viable cells is 1,000 cells/well or more.)”. The “Evaluation result of cell proliferative properties Porcine” value in data set [4] is “A (The number of viable cells is 1,000 cells/well or more.)”.
For the substance “456 (QCPQNFINPVQWRYFQHYKNKQCPQNFINPVQWRYFQHYKNK; also: cyclic peptide) [compound 456]”, in data set [1], the “Evaluation result of cell proliferative properties Avian” value is recorded as “A (The number of viable cells is 1,000 cells/well or more.)”. In addition, the “Evaluation result of cell proliferative properties Bovine” value in data set [2] was “A (The number of viable cells is 1,000 cells/well or more.)”. Further, in data set [3], the “Evaluation result of cell proliferative properties Human” value is recorded as “A (The number of viable cells is 1,000 cells/well or more.)”. The “Evaluation result of cell proliferative properties Porcine” value in data set [4] is on record as “A (The number of viable cells is 1,000 cells/well or more.)”.
For the substance “457 (QCPQNFINPVQWRYFQHYKNKQCPQNFINPVQWRYFQHYKNK; also: cyclic peptide) [compound 457]”, the “Evaluation result of cell proliferative properties Avian” value in data set [1] was “A (The number of viable cells is 1,000 cells/well or more.)”. For the same substance, the “Evaluation result of cell proliferative properties Bovine” value in data set [2] is reported as “A (The number of viable cells is 1,000 cells/well or more.)”. The “Evaluation result of cell proliferative properties Human” value in data set [3] is on record as “A (The number of viable cells is 1,000 cells/well or more.)”. Moreover, the “Evaluation result of cell proliferative properties Porcine” value in data set [4] is recorded as “A (The number of viable cells is 1,000 cells/well or more.)”.
With “458 (QCPQNFINPVQWRYFQHYKNKQCPQNFINPVQWRYFQHYKNK; also: cyclic peptide) [compound 458]”, the “Evaluation result of cell proliferative properties Avian” value in data set [1] is on record as “A (The number of viable cells is 1,000 cells/well or more.)”. Further, in data set [2], the “Evaluation result of cell proliferative properties Bovine” value is “A (The number of viable cells is 1,000 cells/well or more.)”. Moreover, the “Evaluation result of cell proliferative properties Human” value in data set [3] was “A (The number of viable cells is 1,000 cells/well or more.)”. In addition, the “Evaluation result of cell proliferative properties Porcine” value in data set [4] was “A (The number of viable cells is 1,000 cells/well or more.)”.
As for “459 (QCPQNFINPVQWRYFQHYKNQCPQNFINPVQWRYFQHYKNK; also: cyclic peptide) [compound 459]”, the “Evaluation result of cell proliferative properties Avian” value in data set [1] was “B (The number of viable cells is 400 cells/well or more and less than 1,000 cells/well.)”. Further, the “Evaluation result of cell proliferative properties Bovine” value in data set [2] is “B (The number of viable cells is 400 cells/well or more and less than 1,000 cells/well.)”. The “Evaluation result of cell proliferative properties Human” value in data set [3] was “A (The number of viable cells is 1,000 cells/well or more.)”. Moreover, the “Evaluation result of cell proliferative properties Porcine” value in data set [4] is “A (The number of viable cells is 1,000 cells/well or more.)”.
On to “460 (YCEENYLDPEQYQYFIYFKYKYCEENYLDPEQYQYFIYFKYK; also: cyclic peptide) [compound 460]”, for which, in data set [1], the “Evaluation result of cell proliferative properties Avian” value is “A (The number of viable cells is 1,000 cells/well or more.)”. Further, in data set [2], the “Evaluation result of cell proliferative properties Bovine” value is “A (The number of viable cells is 1,000 cells/well or more.)”. The “Evaluation result of cell proliferative properties Human” value in data set [3] is recorded as “A (The number of viable cells is 1,000 cells/well or more.)”. The “Evaluation result of cell proliferative properties Porcine” value in data set [4] is reported as “A (The number of viable cells is 1,000 cells/well or more.)”.
For the substance “Y-(C)-EENYLDPEQYQYFIYF-(K(acetyl))-YKKK (YCEENYLDPEQYQYFIYFK(COCH2)YKKK; thioether 2-19) [SEQ ID NO: 450]”, the “residual rate of the cyclic peptide” value in data set [5] worked out at 36%.
On to “Y-(Hcy)-EENYLDPEQYQYFIYF-(K(acetyl))-YKKK (YXEENYLDPEQYQYFIYFKYKKK; homocysteine, acetyl-lysine; Description of Artificial Sequence: Cyclic peptide) [SEQ ID NO: 442]”, for which the “residual rate of the cyclic peptide” value in data set [5] is 61%.
